Laboratory results as given in US20190194179A1, “ANTIBIOTIC COMPOUNDS” (DISCUVA LTD., priority 2016, published 2019).
Where a name gives a salt, the structure may show the parent alone.

These compounds were tested on Neisseria gonorrhoeae (assay: EC50 determination: plate-based broth growth assay (absorbance at 600 nm) of Neisseria gonorrhoeae). Details: absorbance 600 nm after 20 hours at 37° C./5% CO2, read-out: IC50 (Inhibitory concentration) against Neisseria gonorrhoeae.
Type: cell-based
Procedure: Actively growing Neisseria gonorrhoeae on GC agar (based on; Spence et. al. (2008): Curr. Protoc. Microbiol. 8:4A.1.1-4A.1.26) plates are harvested and transferred to GC broth (based on; Spence et al (2008): Curr. Protoc. Microbiol. 8:4A.1.1-4A.1.26) to generate a liquid stock. This culture is allowed to establish and grow to mid-log phase (at 37° C./5% CO2), finally this culture is diluted (˜10^5 cells/ml) to generate a seed inoculum to establish plate-based broth assays. EC50 values were determined by assaying growth (absorbance read at 600 nm, after 20 hours at 37° C./5% CO2) of Neisseria gonorrhoeae across a 10-point dilution series of the test compound. The EC50 value is determined from transformed data to identify the concentration of compound giving a 50% response relative to control samples (no compound).

IC50 [µM] | SMILES
≤ 1 | NC(=O)c1csc(Nc2nc3cccc(Cl)c3o2)n1 [Example 36, 2-((7-Chlorobenzo[d]oxazol-2-yl)amino)thiazole-4-carboxamide]
≤ 1 | Clc1cccc2nc(Nc3nnc(CN4CCCC4)[nH]3)oc12 [Example 131, 7-Chloro-N-(5-(pyrrolidin-1-ylmethyl)-4H-1,2,4-triazol-3-yl)benzo[d]oxazol-2-amine]
≤ 1 | CN1CCc2oc(Nc3nc4cc(C(F)(F)F)ccc4o3)nc2C1 [Example 156, 5-Methyl-N-(5-(trifluoromethyl)benzo[d]oxazol-2-yl)-4,5,6,7-tetrahydrooxazolo[4,5-c]pyridin-2-amine]
≤ 0.1 | O=C(NC1CC1)c1csc(Nc2nc3ccc(C(F)(F)F)cc3o2)n1 [Example 26, N-Cyclopropyl-2-((6-(trifluoromethyl)benzo[d]oxazol-2-yl)amino)thiazole-4-carboxamide]
≤ 0.1 | FC(F)(F)c1cc2oc(Nc3nc4ccccc4o3)nc2cn1 [Example 163, N-(Benzo[d]oxazol-2-yl)-6-(trifluoromethyl) oxazolo[4,5-c]pyridin-2-amine]
≤ 10 | Cc1nnc(Nc2nc3c(C)cccc3n2C)o1 [Example 90, N-(1,4-Dimethyl-1H-benzo[d]imidazol-2-yl)-5-methyl-1,3,4-oxadiazol-2-amine]
≤ 1 | FC(F)(F)c1ccc2oc(Nc3nnc([C@@H]4CCCN4)o3)nc2c1 [Example 146, (S)-N-(5-(pyrrolidin-2-yl)-1,3,4-oxadiazol-2-yl)-5-(trifluoromethyl)benzo[d]oxazol-2-amine hydrochloride]
≤ 10 | Nc1ccc2nc(Nc3nnco3)oc2c1 [Example 195, N^2-(1,3,4-oxadiazol-2-yl)benzo[d]oxazole-2,6-diamine]
≤ 1 | CC(C)c1ccc2nc(Nc3nnco3)oc2c1 [Example 211, 6-Isopropyl-N-(1,3,4-oxadiazol-2-yl)benzo[d]oxa-zol-2-amine]
≤ 1 | CN1CCN(c2cnc(Nc3nc4ccc(C(F)(F)F)cc4o3)s2)CC1 [Example 35, N-(5-(4-Methylpiperazin-1-yl)thiazol-2-yl)-6-(trifluoromethyl)benzo[d]oxazol-2-amine]
≤ 1 | Cc1noc(Nc2nc3cc(C(F)(F)F)ccc3o2)n1 [Example 31, N-(3-Methyl-1,2,4-oxadiazol-5-yl)-5-(trifluoromethyl)benzo[d]oxazol-2-amine]
≤ 0.1 | FC(F)(F)c1cc2nc(Nc3nnc[nH]3)oc2cc1Cl [Example 43, 6-Chloro-N-(4H-1,2,4-triazol-3-yl)-5-(trifluoromethyl)benzo[d]oxazol-2-amine]
≤ 0.1 | Clc1ccc2oc(Nc3nc4cnccc4o3)nc2c1 [Example 164, N-(5-Chlorobenzo[d]oxazol-2-yl)oxazolo[4,5-c]pyridin-2-amine]
≤ 10 | Cn1cc(Nc2nc3cc(C(F)(F)F)ccc3o2)nn1 [Example 12, N-(1-Methyl-1H-1,2,3-triazol-4-yl)-5-(trifluoromethyl)benzo[d]oxazol-2-amine]
≤ 100 | NC(=O)c1nnc(Nc2nc3ccc(Cl)cc3o2)o1 [Example 200, 5-((6-Chlorobenzo[d]oxazol-2-yl)amino)-1,3,4-oxadiazole-2-carboxamide]
≤ 1 | Cc1ccc2oc(Nc3nc(C(=O)NC4CC4)cs3)nc2c1 [Example 16, N-Cyclopropyl-2-((5-methylbenzo[d]oxazol-2-yl)amino)thiazole-4-carboxamide]
≤ 1 | CN(C)Cc1nnc(Nc2nc3ccc(Cl)cc3o2)o1 [Example 81, 6-Chloro-N-(5-((dimethylamino)methyl)-1,3,4-oxadiazol-2-yl)benzo[d]oxazol-2-amine]
≤ 1 | FC(F)(F)c1ccc2oc(Nc3ccon3)nc2c1 [Example 11, N-(Isoxazol-3-yl)-5-(trifluoromethyl)benzo[d]oxazol-2-amine]

SMILES | IC50 [µM]
Clc1ccc2nc(Nc3nnco3)[nH]c2c1 [Example 91, N-(6-Chloro-1H-benzo[d]imidazol-2-yl)-1,3,4-oxadiazol-2-amine] | ≤ 100
